The text below walks through data of patent EP1218402B1 (Dabur Research Foundation, priority 1999, dated 2001).

Assay [1] concerns L132. Briefly: Cytotoxicity assay for tumor cells, lung L132. It is filed as cell-based. The conditions noted are these: concentration causing 50% cytotoxicity. From the text: (§1) The cytotoxicity assays for tumor cells have been described in detail in our application No. 09/040,856 filed in US on March 18, 1998. […] Table - I
Assay [2] has as its system HT-29. Briefly: Cytotoxicity assay for tumor cells, colon HT-29. It is filed as cell-based. The following applies: concentration causing 50% cytotoxicity.
From the text: as §1

Assay [3] relates to PA-1. Briefly: Cytotoxicity assay for tumor cells, ovary PA-1. It is filed as cell-based. The conditions noted are these: concentration causing 50% cytotoxicity.
From the text: as §1

In assay [4] the test system is ECV304. Briefly: Tube-like-structure (TLS) formation of ECV304 cells on Matrigel. It is filed as cell-based, human. The following applies: 24 - 48 hours, mean of five fields. As for the experimental part:
Matrigel (70 µl) was placed into each well of a 96-well culture plate at 4°C and was allowed to polymerize by incubation at 37°C for 30 min. ECV304 (1 x 10^4) cells were seeded on the Matrigel in 200 µl DMEM containing 10% FBS. […] Five different phase-contrast microscopic fields (4X) were viewed and total tube area of the tube-like-structures (TLS) measured using Video Pro 32 Image Analysis system. Percent reduction in total tube area was given as the mean of the data from five fields. Percent inhibition of TLS was calculated with reference to Controls(no drug). Table - III

The subject of assay [5] is DU145. Briefly: Cytotoxicity assay for tumor cells, prostate DU145. It is filed as cell-based. The following applies: concentration causing 50% cytotoxicity.
From the text: as §1

Assay [6] relates to ECV304. Briefly: MTT assay, inhibition of proliferation of ECV304 endothelial cells (72 hours). It is filed as cell-based, human. The following applies: concentration causing 50% cytotoxicity. As for the experimental part: 30µl of ECV304 cell suspension (50 x 10^4 cells/ml in RPMI 1640 containing 10% FBS) followed by 150µl of medium was added to the wells of a 96-well tissue culture plate (Nunc, Denmark) and incubated (37°C, 5% CO2) overnight. […] Each concentration was plated in triplicates. 20µl of medium alone was added to control wells. After 72 hours of incubation an MTT assay (Mosmann, 1983) was performed and percentage inhibition in proliferation of treated cells was calculated with respect to control cells.
(In general: Formazan colour is commonly taken as a measure of viable cells.)

The structures appear in SMILES notation.

`CC(C)C1CCC2(C(=O)O)CCC3(C)C(CCC4C5(C)CCC(OC(=O)c6ccc(F)cc6F)C(C)(C)C5CCC43C)C12` (stereo not shown) [MJ937-RS]: in assay [1], the “Lung L132 (ED50)” value was 1.1 µg/mL. The “Colon HT-29 (ED50)” value in assay [2] was determined as 1.7 µg/mL. Further, the “Ovary PA-1 (ED50)” value in assay [3] worked out at 1.6 µg/mL. Further, in assay [4], the “% reduction in total tube area at concentration 0.5 µg/ml” value came out at 16.7%, the “% reduction in total tube area at concentration 2 µg/ml” value (“% reduction … at concentration 2 µg/ml” for short) worked out at 21% and the “% reduction in total tube area at concentration 4 µg/ml” value (shortened to “% reduction … at concentration 4 µg/ml”) amounted to 21.7%. The “Prostate DU145 (ED50)” value in assay [5] stood at 2.5 µg/mL. Further, the “Endothelial ECV304 (ED50)” value in assay [6] stood at 0.7 µg/mL.
Consider `CC(C)C1CCC2(C(=O)O)CCC3(C)C(CCC4C5(C)CCC(N=Cc6ccc(F)c(F)c6)C(C)(C)C5CCC43C)C12` (stereo not shown) [MJ998-RS], for which the “Lung L132 (ED50)” value in assay [1] amounted to 2.5 µg/mL. Moreover, the “Colon HT-29 (ED50)” value in assay [2] worked out at 4 µg/mL. In addition, the “Ovary PA-1 (ED50)” value in assay [3] came to 1.3 µg/mL. Further, in assay [4], the “% reduction in total tube area at concentration 0.5 µg/ml” value was 21.1%, the “% reduction … at concentration 2 µg/ml” value is recorded as 13.4% and the “% reduction … at concentration 4 µg/ml” value is listed as 33.4%. For the same compound, the “Prostate DU145 (ED50)” value in assay [5] is 2.2 µg/mL. Moreover, in assay [6], the “Endothelial ECV304 (ED50)” value was determined as 0.35 µg/mL.
As to `C=C(C)C1CCC2(C(=O)O)CCC3(C)C(CCC4C5(C)CCC(=NNc6ccccc6)C(C)(C)C5CCC43C)C12` (stereo not shown) [MJ353-RS], the “Lung L132 (ED50)” value in assay [1] was determined as 4.5 µg/mL. Besides, in assay [2], the “Colon HT-29 (ED50)” value was above 10 µg/mL. Also, the “Ovary PA-1 (ED50)” value in assay [3] amounted to 5 µg/mL. For the same compound, the “Prostate DU145 (ED50)” value in assay [5] was 6.5 µg/mL. For the same compound, the “Endothelial ECV304 (ED50)” value in assay [6] stood at 2.4 µg/mL.
As to `CC(C)C1CCC2(C(=O)O)CCC3(C)C(CCC4C5(C)CCC(N=Cc6ccc(F)cc6F)C(C)(C)C5CCC43C)C12` (stereo not shown) [MJ1065-RS], the “Lung L132 (ED50)” value in assay [1] is 3.4 µg/mL. Besides, the “Colon HT-29 (ED50)” value in assay [2] was determined as 4.9 µg/mL. For the same compound, the “Ovary PA-1 (ED50)” value in assay [3] turned out to be 1.3 µg/mL. Besides, in assay [4], the “% reduction in total tube area at concentration 0.5 µg/ml” value is given as 23.4%, the “% reduction … at concentration 2 µg/ml” value is given as 16.7% and the “% reduction … at concentration 4 µg/ml” value was found to be 46.7%. Moreover, in assay [5], the “Prostate DU145 (ED50)” value amounted to 2.5 µg/mL. Besides, the “Endothelial ECV304 (ED50)” value in assay [6] is 2.4 µg/mL.
With `COc1ccc(NNC2CCC3(C)C(CCC4(C)C3CCC3C5C(C(C)C)CCC5(C(=O)O)CCC34C)C2(C)C)cc1` (stereo not shown) [MJ912-RS], in assay [1], the “Lung L132 (ED50)” value is above 4 µg/mL. The “Colon HT-29 (ED50)” value in assay [2] was 0.35 µg/mL. Moreover, the “Prostate DU145 (ED50)” value in assay [5] was found to be 8.5 µg/mL. Moreover, in assay [6], the “Endothelial ECV304 (ED50)” value was 0.4 µg/mL.
Turning to `C=C(C)C1CCC2(C(=O)O)CCC3(C)C(CCC4C5(C)CCC(OC(=O)c6cccc(C(F)(F)F)c6)C(C)(C)C5CCC43C)C12` (stereo not shown) [MJ939-RS], the “Lung L132 (ED50)” value in assay [1] worked out at 2.7 µg/mL. Further, the “Colon HT-29 (ED50)” value in assay [2] is above 10 µg/mL. Besides, the “Ovary PA-1 (ED50)” value in assay [3] is above 4 µg/mL. Besides, in assay [5], the “Prostate DU145 (ED50)” value is above 10 µg/mL. Moreover, the “Endothelial ECV304 (ED50)” value in assay [6] turned out to be 0.9 µg/mL.
As for `CC(C)C1CCC2(C(=O)O)CCC3(C)C(CCC4C5(C)CCC(=NOCc6ccc([N+](=O)[O-])cc6)C(C)(C)C5CCC43C)C12` (stereo not shown) [MJ1098-RS], the “Lung L132 (ED50)” value in assay [1] amounted to 1.3 µg/mL. The “Colon HT-29 (ED50)” value in assay [2] is 2.6 µg/mL. For the same compound, the “Ovary PA-1 (ED50)” value in assay [3] came out at 1.6 µg/mL. In assay [4], the “% reduction in total tube area at concentration 0.5 µg/ml” value was determined as 15%, the “% reduction … at concentration 2 µg/ml” value is reported as 7.5% and the “% reduction … at concentration 4 µg/ml” value stood at 10%. Moreover, the “Prostate DU145 (ED50)” value in assay [5] was found to be 1.5 µg/mL. For the same compound, the “Endothelial ECV304 (ED50)” value in assay [6] is 0.6 µg/mL.
Turning to `C=C(C)C1CCC2(C(=O)O)CCC3(C)C(CCC4C5(C)CCC(OC(=O)Cc6cc(OC)ccc6OC)C(C)(C)C5CCC43C)C12` (stereo not shown) [MJ1108-RS], in assay [1], the “Lung L132 (ED50)” value turned out to be 4.6 µg/mL. Further, in assay [2], the “Colon HT-29 (ED50)” value is above 10 µg/mL. The “Prostate DU145 (ED50)” value in assay [5] was 1 µg/mL. The “Endothelial ECV304 (ED50)” value in assay [6] worked out at 1.8 µg/mL.
`C=C(C)C1CCC2(C(=O)O)CCC3(C)C(CCC4C5(C)CCC(OC(=O)c6ccc(CCCCC)cc6)C(C)(C)C5CCC43C)C12` (stereo not shown) [MJ1104-RS]: the “Lung L132 (ED50)” value in assay [1] is 5.9 µg/mL. Further, in assay [2], the “Colon HT-29 (ED50)” value is 3.5 µg/mL. In addition, the “Ovary PA-1 (ED50)” value in assay [3] was above 4 µg/mL. In assay [5], the “Prostate DU145 (ED50)” value came to 2 µg/mL. In assay [6], the “Endothelial ECV304 (ED50)” value turned out to be 1.9 µg/mL.
Regarding `CC(C)C1CCC2(C(=O)O)CCC3(C)C(CCC4C5(C)CCC(OC(=O)c6ccccc6C(F)(F)F)C(C)(C)C5CCC43C)C12` (stereo not shown) [MJ943-RS], the “Lung L132 (ED50)” value in assay [1] stood at 4 µg/mL. For the same compound, the “Colon HT-29 (ED50)” value in assay [2] is above 10 µg/mL. Also, in assay [3], the “Ovary PA-1 (ED50)” value is above 4 µg/mL. In addition, in assay [5], the “Prostate DU145 (ED50)” value is above 4 µg/mL. Moreover, the “Endothelial ECV304 (ED50)” value in assay [6] turned out to be 2.6 µg/mL.
Regarding `CC(C)C1CCC2(C(=O)O)CCC3(C)C(CCC4C5(C)CCC(OC(=O)c6cc(F)cc(F)c6)C(C)(C)C5CCC43C)C12` (stereo not shown) [MJ935-RS], in assay [1], the “Lung L132 (ED50)” value worked out at 1.2 µg/mL. In addition, the “Colon HT-29 (ED50)” value in assay [2] was above 10 µg/mL. Besides, the “Prostate DU145 (ED50)” value in assay [5] is 3.2 µg/mL. For the same compound, in assay [6], the “Endothelial ECV304 (ED50)” value is 0.7 µg/mL.
